Experimental data: the NIST ThermoML archive (doi:10.1007/s10765-005-8102-9)
± gives the expanded uncertainty stated by the source.

Columns and labels:
[1] = refractive index (Na D-line) (dimensionless); xn = mol fraction of the nth substance listed; settings: 303.15 K, 101 kPa, Liquid
[2] = xn = mol fraction of the nth substance listed; settings: 303.15 K, 101 kPa, Liquid
[3] = refractive index (Na D-line) (dimensionless); settings: 303.15 K; 101.33 kPa; Liquid
[4] = 303.15 K; 101 kPa; Liquid

Molecule `CCCCO` [butan-1-ol] + C[S+](C)[O-] has a refractive index ([1]; x2 = 0) of 1.3946 ± 0.0007, a mass density ([2]; x2 = 0) of 802 ± 0.8 kg/m3 and a speed of sound ([2]; x2 = 0) of 1231 ± 4.7 m/s.

Molecule `C[S+](C)[O-]` [dimethyl sulfoxide] + CCCCO has a refractive index ([1]; x1 = 0.1034) of 1.4001 ± 0.0007, a refractive index ([1]; x1 = 0.2122) of 1.4064 ± 0.0007 and a refractive index ([1]; x1 = 0.3156) of 1.4127 ± 0.0007. For the same molecule, the refractive index ([1]; x1 = 0.4009) was 1.4185 ± 0.0007, the refractive index ([1]; x1 = 0.5073) was 1.4263 ± 0.0007 and the refractive index ([1]; x1 = 0.6002) was 1.4335 ± 0.0007. For the same molecule, the refractive index ([1]; x1 = 0.6957) was 1.4417 ± 0.0007, the refractive index ([1]; x1 = 0.8112) was 1.4527 ± 0.0007 and the refractive index ([1]; x1 = 0.9051) was 1.4633 ± 0.0007. The refractive index ([1]; x1 = 1) was 1.4751 ± 0.0007, the mass density ([2]; x1 = 0.1034) was 825.7 ± 0.8 kg/m3 and the speed of sound ([2]; x1 = 0.1034) was 1247.5 ± 4.7 m/s. It also gave a mass density ([2]; x1 = 0.2122) of 851.8 ± 0.9 kg/m3, a speed of sound ([2]; x1 = 0.2122) of 1267.5 ± 4.8 m/s and a mass density ([2]; x1 = 0.3156) of 877.9 ± 0.9 kg/m3. For the same molecule, the speed of sound ([2]; x1 = 0.3156) was 1288 ± 4.8 m/s, the mass density ([2]; x1 = 0.4009) was 900.5 ± 1 kg/m3 and the speed of sound ([2]; x1 = 0.4009) was 1305.5 ± 4.8 m/s. For the same molecule, the mass density ([2]; x1 = 0.5073) was 930.1 ± 1 kg/m3, the speed of sound ([2]; x1 = 0.5073) was 1327.3 ± 4.8 m/s and the mass density ([2]; x1 = 0.6002) was 957.2 ± 1 kg/m3. For the same molecule, the speed of sound ([2]; x1 = 0.6002) was 1347.5 ± 4.8 m/s, the mass density ([2]; x1 = 0.6957) was 986.6 ± 1.1 kg/m3 and the speed of sound ([2]; x1 = 0.6957) was 1371 ± 4.9 m/s. For the same molecule, the mass density ([2]; x1 = 0.8112) was 1024.6 ± 1.2 kg/m3, the speed of sound ([2]; x1 = 0.8112) was 1406.6 ± 4.9 m/s and the mass density ([2]; x1 = 0.9051) was 1058.4 ± 1.2 kg/m3. The speed of sound ([2]; x1 = 0.9051) was 1443 ± 5 m/s, the mass density ([2]; x1 = 1) was 1094.9 ± 1.3 kg/m3 and the speed of sound ([2]; x1 = 1) was 1490.9 ± 5 m/s.

For `C[S+](C)[O-]` [dimethyl sulfoxide] + CCCCCCCO, the refractive index ([1]; x1 = 1) was 1.4751 ± 0.0007, the mass density ([2]; x1 = 1) was 1094.9 ± 1.3 kg/m3 and the speed of sound ([2]; x1 = 1) was 1490.9 ± 7 m/s.

`CCCCCCCO` [heptan-1-ol] + C[S+](C)[O-] showed a refractive index ([1]; x2 = 0) of 1.4201 ± 0.0007, a refractive index ([1]; x2 = 0.1096) of 1.4209 ± 0.0007 and a refractive index ([1]; x2 = 0.2535) of 1.4242 ± 0.0007. For the same molecule, the refractive index ([1]; x2 = 0.3668) was 1.4277 ± 0.0007, the refractive index ([1]; x2 = 0.474) was 1.4312 ± 0.0007 and the refractive index ([1]; x2 = 0.5788) was 1.4355 ± 0.0007. It also gave a refractive index ([1]; x2 = 0.6708) of 1.4402 ± 0.0007, a refractive index ([1]; x2 = 0.7598) of 1.4458 ± 0.0007 and a refractive index ([1]; x2 = 0.8376) of 1.4528 ± 0.0007. The refractive index ([1]; x2 = 0.9031) was 1.4615 ± 0.0007, the mass density ([2]; x2 = 0) was 815.7 ± 0.9 kg/m3 and the speed of sound ([2]; x2 = 0) was 1306 ± 6.6 m/s. The mass density ([2]; x2 = 0.1096) was 825.7 ± 0.9 kg/m3, the speed of sound ([2]; x2 = 0.1096) was 1312.3 ± 6.6 m/s and the mass density ([2]; x2 = 0.2535) was 846 ± 0.9 kg/m3. For the same molecule, the speed of sound ([2]; x2 = 0.2535) was 1319.5 ± 6.6 m/s, the mass density ([2]; x2 = 0.3668) was 866.8 ± 1 kg/m3 and the speed of sound ([2]; x2 = 0.3668) was 1329.9 ± 6.6 m/s. The mass density ([2]; x2 = 0.474) was 889.4 ± 1 kg/m3, the speed of sound ([2]; x2 = 0.474) was 1338 ± 6.6 m/s and the mass density ([2]; x2 = 0.5788) was 915.8 ± 1 kg/m3. The speed of sound ([2]; x2 = 0.5788) was 1351.5 ± 6.7 m/s, the mass density ([2]; x2 = 0.6708) was 943.2 ± 1.1 kg/m3 and the speed of sound ([2]; x2 = 0.6708) was 1369 ± 6.7 m/s. It also gave a mass density ([2]; x2 = 0.7598) of 973.2 ± 1.1 kg/m3, a speed of sound ([2]; x2 = 0.7598) of 1384.6 ± 6.7 m/s and a mass density ([2]; x2 = 0.8376) of 1003.5 ± 1.2 kg/m3. The speed of sound ([2]; x2 = 0.8376) was 1409.3 ± 6.8 m/s, the mass density ([2]; x2 = 0.9031) was 1034.5 ± 1.2 kg/m3 and the speed of sound ([2]; x2 = 0.9031) was 1428.6 ± 6.8 m/s.

`CCCCO` [butan-1-ol] gave a refractive index [3] of 1.3946 ± 0.0007, a mass density [4] of 802 ± 0.8 kg/m3 and a speed of sound [4] of 1231 ± 4.7 m/s.

In the case of `C[S+](C)[O-]` [dimethyl sulfoxide] + CCCCCCO, the refractive index ([1]; x1 = 1) is reported as 1.4751 ± 0.0007, the mass density ([2]; x1 = 1) is reported as 1094.9 ± 2.4 kg/m3 and the speed of sound ([2]; x1 = 1) is reported as 1490.9 ± 7 m/s.

In the case of `CCCCCCO` [hexan-1-ol], the refractive index [3] is reported as 1.4134 ± 0.0008, the mass density [4] is reported as 811.8 ± 1.8 kg/m3 and the speed of sound [4] is reported as 1282 ± 6.7 m/s.

With `CCCCCCO` [hexan-1-ol] + C[S+](C)[O-] the refractive index ([1]; x2 = 0) was 1.4134 ± 0.0008, the refractive index ([1]; x2 = 0.1336) was 1.4149 ± 0.0008 and the refractive index ([1]; x2 = 0.2712) was 1.4185 ± 0.0008. The refractive index ([1]; x2 = 0.3808) was 1.4216 ± 0.0008, the refractive index ([1]; x2 = 0.4814) was 1.4259 ± 0.0008 and the refractive index ([1]; x2 = 0.5762) was 1.4311 ± 0.0008. The refractive index ([1]; x2 = 0.666) was 1.4372 ± 0.0007, the refractive index ([1]; x2 = 0.765) was 1.4448 ± 0.0007 and the refractive index ([1]; x2 = 0.848) was 1.4535 ± 0.0007. For the same molecule, the refractive index ([1]; x2 = 0.9246) was 1.4629 ± 0.0007, the mass density ([2]; x2 = 0) was 811.8 ± 1.8 kg/m3 and the speed of sound ([2]; x2 = 0) was 1282 ± 6.7 m/s. For the same molecule, the mass density ([2]; x2 = 0.1336) was 832.6 ± 1.8 kg/m3, the speed of sound ([2]; x2 = 0.1336) was 1300.8 ± 6.7 m/s and the mass density ([2]; x2 = 0.2712) was 857.6 ± 1.9 kg/m3. The speed of sound ([2]; x2 = 0.2712) was 1311.6 ± 6.7 m/s, the mass density ([2]; x2 = 0.3808) was 880.7 ± 1.9 kg/m3 and the speed of sound ([2]; x2 = 0.3808) was 1325.3 ± 6.7 m/s. For the same molecule, the mass density ([2]; x2 = 0.4814) was 904.6 ± 1.9 kg/m3, the speed of sound ([2]; x2 = 0.4814) was 1336.5 ± 6.7 m/s and the mass density ([2]; x2 = 0.5762) was 929.7 ± 2 kg/m3. It also gave a speed of sound ([2]; x2 = 0.5762) of 1349.5 ± 6.7 m/s, a mass density ([2]; x2 = 0.666) of 956.3 ± 2 kg/m3 and a speed of sound ([2]; x2 = 0.666) of 1368 ± 6.8 m/s. The mass density ([2]; x2 = 0.765) was 989.2 ± 2.1 kg/m3, the speed of sound ([2]; x2 = 0.765) was 1395 ± 6.8 m/s and the mass density ([2]; x2 = 0.848) was 1021.1 ± 2.2 kg/m3. For the same molecule, the speed of sound ([2]; x2 = 0.848) was 1420.5 ± 6.8 m/s, the mass density ([2]; x2 = 0.9246) was 1054.7 ± 2.3 kg/m3 and the speed of sound ([2]; x2 = 0.9246) was 1448.5 ± 6.9 m/s.

Work on `C[S+](C)[O-]` [dimethyl sulfoxide] yielded a refractive index [3] of 1.4751 ± 0.0007, a mass density [4] of 1094.9 ± 1.3 kg/m3 and a speed of sound [4] of 1490.9 ± 5 m/s.

`CCCCCCCO` [heptan-1-ol] showed a refractive index [3] of 1.4201 ± 0.0007, a mass density [4] of 815.7 ± 0.9 kg/m3 and a speed of sound [4] of 1306 ± 6.6 m/s.
